Counter-ions that a name gives are not always drawn. Some results are limits rather than exact numbers.

From ChEMBL document CHEMBL1134808, “Evolution of anti-HIV drug candidates. Part 1: From alpha-anilinophenylacetamide (alpha-APA) to imidoyl thiourea (ITU)” (Bioorg Med Chem Lett, 2001) come the findings set out here.

Assay [1] relates to Human immunodeficiency virus 1. Briefly: Compound potency to achieve protection of MT-4 cells from HIV-1 cytopathicity. Type of assay: functional, organism-based, MT4.
Assay [2] concerns MT4. Kind of assay: Compound was tested for potency to achieve protection of MT-4 cells from 188L strain of HIV-1 virus. Type of assay: functional, cell-based. Conditions: Homo sapiens.
The subject of assay [3] is MT4. Kind of assay: Compound was tested for potency to achieve protection of MT-4 cells from 181C strain of HIV-1 virus. Type of assay: functional, cell-based. Conditions: Homo sapiens.
For assay [4], the system named is MT4. Kind of assay: Compound was tested for potency to achieve protection of MT-4 cells from 100I strain of HIV-1 virus. Type of assay: functional, cell-based. Particulars: Homo sapiens.
Assay [5] concerns MT4. Briefly: Compound was tested for potency to achieve protection of MT-4 cells from LAI strain of HIV-1 virus. Type of assay: functional, cell-based. Particulars: Homo sapiens.
Assay [6] relates to MT4. Briefly: Compound was tested for potency to achieve protection of MT-4 cells from 106A strain of HIV-1 virus. Particulars: Homo sapiens. The class given is functional, cell-based.
The test system of assay [7] is MT4. Kind of assay: Compound was tested for potency to achieve protection of MT-4 cells from 190A strain of HIV-1 virus. Type of assay: functional, cell-based. Conditions: Homo sapiens.
Assay [8] concerns MT4. Kind of assay: Compound was tested for potency to achieve protection of MT-4 cells from 103N strain of HIV-1 virus. Type of assay: functional, cell-based. Conditions: Homo sapiens.
Assay [9] deals with MT4. Kind of assay: Compound was tested for potency to achieve protection of MT-4 cells from 101E strain of HIV-1 virus. Type of assay: functional, cell-based. Particulars: Homo sapiens.
Setting [10] is: Human immunodeficiency virus 1, MT4.

One may read the IC50 as the concentration that gives 50% inhibition. Low readings indicate inhibition by little substance, high ones a need for much substance. Turning to `NC(=O)C(/N=C(\S)Nc1ccc(Cl)cc1)c1c(Cl)cccc1Cl` (stereo not given), in [1] (setting [10]), the IC50 was found to be 160 nM.

`NC(=O)C(NC(=O)c1ccccc1[N+](=O)[O-])c1c(Cl)cccc1Cl` (stereo not given) had a concentration for half-maximal inhibition (IC50) in [1] (setting [10]) greater than 79000 nM.

As for `N=C(Cc1c(Cl)cccc1Cl)NC(=S)Nc1ccc(Cl)cc1Cl`, the half-maximal inhibitory concentration (IC50) in assay [1] (setting [10]) turned out to be 347 nM.

As to `NC(=O)C(NCc1ccccc1[N+](=O)[O-])c1c(Cl)cccc1Cl` (stereo not given), the IC50 in assay [1] (setting [10]) was greater than 250000 nM.

Molecule `N#Cc1ccc(NC(=S)NC(=O)Cc2c(Cl)cccc2Cl)cc1` gave an IC50 in assay [1] (setting [10]) of 631000 nM.

With `CC(C)Nc1cccnc1N1CCN(C(=O)c2cc3cc(NS(C)(=O)=O)ccc3[nH]2)CC1` [DELAVIRDINE MESYLATE], the 50% inhibitory concentration (IC50) with MT4 [2] stood at 1260 nM; in the assay with MT4 [3], 2000 nM; with MT4 [4] it was 2510 nM; in the assay with MT4 [5] it was 63 nM; in the assay on MT4 [6], 1590 nM; in the assay on MT4 [7], 63 nM. The IC50 in the assay on MT4 [8] was determined as 2510 nM; in the assay on MT4 [9], 158 nM.

For `CN(/C(S)=N/C(=N)Cc1c(Cl)cccc1Cl)c1ccc(C#N)cc1`, the half-inhibitory concentration (IC50) in assay [1] (setting [10]) was determined as 58900 nM.

In turn, `N#Cc1ccc(NC(=S)/N=C(/Cc2c(Cl)cccc2Cl)Nc2ccccc2)cc1` showed a 50% inhibitory concentration (IC50) in assay [1] (setting [10]) of 1320 nM.

`N#Cc1ccc(NC(=O)NC(=N)Cc2c(Cl)cccc2Cl)cc1` displayed an IC50 in assay [1] (setting [10]) of 15 nM.

For `NC(=O)C(NC(=O)Nc1ccccc1[N+](=O)[O-])c1c(Cl)cccc1Cl` (stereo not given), the concentration for half-maximal inhibition (IC50) in [1] (setting [10]) is greater than 320000 nM.

Turning to `N#Cc1cccc(NC(=S)NC(=N)Cc2c(Cl)cccc2Cl)c1`, the IC50 in [1] (setting [10]) is 126 nM.

Molecule `CCN/C(Cc1c(Cl)cccc1Cl)=N\C(S)=N\c1ccc(C#N)cc1` registered an IC50 in assay [1] (setting [10]) of 158 nM.

As to `N#Cc1ccc(NC(=S)NC(=N)Cc2ccc(Cl)cc2Cl)cc1`, the IC50 in assay [1] (setting [10]) was 7 nM.

In assay [1] (setting [10]), `N#Cc1ccc(NC(=S)NC(=N)Cc2ccccc2Cl)cc1` yielded an IC50 of 14 nM.

Consider `N=C(Cc1c(Cl)cccc1Cl)NC(=S)Nc1c(Cl)cc(Cl)cc1Cl`, for which, in assay [1] (setting [10]), the IC50 is 42700 nM.

On to `N#Cc1ccc(NC(=S)NC(=N)Cc2c(Cl)ccc(Cl)c2Cl)cc1`, for which, in [1] (setting [10]), it took 5 nM to reach half-maximal inhibition (IC50).

With `NC(=O)C(Nc1ccc(Cl)cc1)c1c(Cl)cccc1Cl` (stereo not given), in [1] (setting [10]), the half-inhibitory concentration (IC50) is greater than 160000 nM.

`N=C(Cc1c(Cl)cccc1Cl)NC(=S)NCCc1ccc(Cl)cc1` displayed a concentration for half-maximal inhibition (IC50) in assay [1] (setting [10]) of 1620 nM.

In turn, `N#Cc1ccc(NC(=S)NC(=N)Cc2ccccc2)cc1` returned a concentration for half-maximal inhibition (IC50) in assay [1] (setting [10]) of 380 nM.

In [1] (setting [10]), `N#Cc1ccccc1NC(=S)NC(=N)Cc1c(Cl)cccc1Cl` gave an IC50 of 631000 nM.

Turning to `N#Cc1ccc(NC(=S)NC(=N)c2c(Cl)cccc2Cl)cc1`, half-maximal inhibition in assay [1] (setting [10]) (IC50) was put at 22900 nM.

`COc1ccccc1CC(=N)/N=C(\S)Nc1ccc(C#N)cc1` came in with a 50% inhibitory concentration (IC50) in assay [1] (setting [10]) of 30 nM.

Regarding `NC(=O)C(Nc1ccccc1[N+](=O)[O-])c1c(Cl)cccc1Cl` (stereo not given), it took 100 nM to reach half-maximal inhibition in assay [1] (setting [10]) (IC50).

In assay [1] (setting [10]), `C/N=C(/Cc1c(Cl)cccc1Cl)NC(=O)Nc1ccc(C#N)cc1` came in with an IC50 of 214 nM.

`N#Cc1ccc(NC(=S)NC(=N)Cc2c(Cl)cccc2Cl)cc1`: the concentration for half-maximal inhibition (IC50) in [1] (setting [10]) is 3 nM; in assay [1] (mt4), 2.5 nM; in the assay on MT4 [2], 318 nM; in the assay with MT4 [3] it was 511 nM; with MT4 [4] it was 513 nM; in the assay on MT4 [5], 3 nM. For the same molecule, the IC50 with MT4 [6] came out at 382 nM; in the assay on MT4 [7], 2 nM; with MT4 [8], 589 nM; in the assay with MT4 [9] it was 19 nM.

In turn, `CN/C(Cc1c(Cl)cccc1Cl)=N\C(S)=N\c1ccc(C#N)cc1` had an IC50 in assay [1] (setting [10]) of 3.9 nM.

Consider `CC(=O)c1ccc(C)cc1NC(C(N)=O)c1c(Cl)cccc1Cl` (stereo not given) [LOVIRIDE], for which the IC50 worked out at 50100 nM in the assay with MT4 [2]; 15800 nM in the assay on MT4 [3]; 50 nM in the assay on MT4 [4]; 50 nM with MT4 [5]; 1000 nM with MT4 [6]; 2510 nM with MT4 [7]. Moreover, the half-inhibitory concentration (IC50) turned out to be 1260 nM in the assay with MT4 [8] and 63 nM with MT4 [9].

In assay [1] (setting [10]), `N=C(Cc1c(Cl)cccc1Cl)NC(=S)Nc1ccc(Cl)cc1` displayed a concentration for half-maximal inhibition (IC50) of 13 nM.

In the case of `N#Cc1ccc(NC(=S)NC(=N)Cc2ccc(Cl)cc2)cc1`, the IC50 in assay [1] (setting [10]) was determined as 148 nM.

Consider `N#Cc1ccc(NC(=N)NC(=N)Cc2c(Cl)cccc2Cl)cc1`, for which, in assay [1] (setting [10]), the IC50 amounted to 7940 nM.

The molecule `Cc1ccccc1CC(=N)/N=C(\S)Nc1ccc(C#N)cc1` registered an IC50 in assay [1] (setting [10]) of 26 nM.

Consider `N=C(Cc1c(Cl)cccc1Cl)NC(=S)NCc1ccc(Cl)cc1`, for which, in assay [1] (setting [10]), 692 nM corresponded to half-maximal inhibition (IC50).

With `NC(=O)C(Nc1ccccc1Cl)c1c(Cl)cccc1Cl` (stereo not given), 400 nM corresponded to half-maximal inhibition in assay [1] (setting [10]) (IC50).

On to `N#Cc1ccc(NC(=S)NS(=O)(=O)Cc2c(Cl)cccc2Cl)cc1`, for which the concentration for half-maximal inhibition (IC50) in assay [1] (setting [10]) came to 100000 nM.

`N#Cc1ccc(NC(=S)NC(=N)C2(c3c(Cl)cccc3Cl)CC2)cc1` registered an IC50 in assay [1] (setting [10]) of 1480 nM.

Turning to `NC(=O)C(/N=C(\S)Nc1cccc(Cl)c1)c1c(Cl)cccc1Cl` (stereo not given), in assay [1] (setting [10]), inhibition was half-maximal at 5200 nM (IC50).

For `N#Cc1ccc(NC(=S)NC(=N)Cc2cccc(Cl)c2)cc1`, the half-maximal inhibitory concentration (IC50) in assay [1] (setting [10]) is 68 nM.

For the molecule `NC(=O)C(/N=C(\S)Nc1ccccc1Cl)c1c(Cl)cccc1Cl` (stereo not given), the half-maximal inhibitory concentration (IC50) in assay [1] (setting [10]) is greater than 60000 nM.

For `N=C(Cc1c(Cl)cccc1Cl)NC(=S)Nc1ccccc1`, the midpoint of inhibition in assay [1] (setting [10]), the IC50, lay at 123 nM.

With `CC(C(=N)/N=C(\S)Nc1ccc(C#N)cc1)c1c(Cl)cccc1Cl` (stereo not given), the IC50 in [1] (setting [10]) worked out at 158 nM.

Regarding `N#Cc1ccc(NC(=S)NC(=N)CCc2c(Cl)cccc2Cl)cc1`, half-maximal inhibition in assay [1] (setting [10]) (IC50) was put at 525 nM.

In [1] (setting [10]), `N#Cc1ccc(N/C(S)=N/C(=N)Cc2c(F)cccc2F)cc1` showed a concentration for half-maximal inhibition (IC50) of 6 nM.
